Test results from patent US11596626B2, “Compound for use against pathogenic Neisseria and Haemophilus species and Moraxella catarrhalis” (priority 2017, dated 2023).
“Also recorded” adds a separate entry of the source.

Tests used:
Commensal Neisseria = assay: Growth inhibition by area under the growth curve relative to solvent; assay type: cell-based; conditions: 5-50 μM, FIG. 5
Procedure: Before every experiment, bacteria were pre-cultured in 5 ml liquid medium for at least 2 hours then harvested and resuspended in PBS (phosphate buffered saline). Optical density (OD) was determined and a volume equal to an OD of 0.2 was inoculated into 5 ml of the respective medium. NQNO was added at the indicated amounts (5-50 μM). DMSO level was adjusted to 1% of final concentration. Samples were incubated for either 10.5 hours, until they reached stationary phase (three measured values in stationary phase) or until they reached an OD of 2.5. Optical density was determined every 0.5 h.
Growth experiments with the compounds represented by the Formulas (4) to (7) were conducted against various bacteria, including clinical isolates of N. gonorrhoeae including high priority 3rd generation cephalosporin/fluoroquinolone-resistant strains, strains isolated from disseminated disease settings, and commensal Neisseria and other commensal bacteria and evaluated (FIGS. 5 and 11). Growth of the indicated bacteria was measured as described in Example 1. Growth inhibition was quantified by measuring the “area under the curve” in the presence of the indicated concentrations of the respective compound (5-50 μM) relative to growth in the presence of the solvent only. Black areas indicate growth inhibition with <30% growth compared to control.

N. gonorrhoeae [1] = assay: Vaginal colonization of CEAtg female mice, re-isolation of gonococci by swab; assay type: in vivo, Neisseria gonorrhoeae
Procedure: By using genetically modified mice (CEA-transgenic; CEAtg mice), which express a human receptor for the gonococcal Opa-adhesin on their mucosal surface, it is possible to study the initial colonization of the upper genital tract by N. gonorrhoeae and to re-isolate these pathogens after intra-vaginal challenge (FIG. 7). 6 to 8 week old, female wildtype (black) or CEA-transgenic (CEAtg, red) mice were infected with N. gonorrhoeae. 2 h after infection, the animals were treated with 20 μl buffer containing solvent (DMSO) or 50 μM NQNO (Compound represented by the Formula (5)). 20 h later, vaginal swaps were taken and plated on selective agar. Each dot refers to bacteria isolated from an individual animal (n≥5) (cf. FIG. 7). […]
In a further experiment, experimental vaginal infection of female mice with N. gonorrhoeae was performed as previously described in the literature (P. Muenzner, V. Bachmann, J. Hentschel, W. Zimmermann, C. R. Hauck, Human-restricted bacterial pathogens block shedding of epithelial cells by stimulating integrin activation. Science 329, 1197-1201 (2010)). […] Serial dilutions of re-isolated bacteria were plated on GC agar containing chloramphenicol (10 μg/ml) and erythromycin (7 μg/ml) and the colonies were counted after 20 h of incubation at 37° C., 5% CO2.

[2] = Stability in DMEM with 10% fetal calf serum by LC-MS; assay type: physicochemical; conditions: 100 μM in DMEM with 10% fetal calf serum, 24° C. and 37° C.
Procedure: Stability of 100 μM NQNO in Dulbecco's modified Eagle's medium (DMEM) medium supplemented with 10% fetal calf serum at 24° C. and 37° C. was evaluated over a period of 4 days. Samples were taken at the beginning (day 0) and every second day. Samples were analyzed by LC-MS and the integrals of the detected NQNO (by using extracted ion chromatograms) compared to the integral of the control (100 μM NQNO in H2O) which was set to 100%.

N. gonorrhoeae [3] = assay: Immunofluorescence staining of upper vaginal tract sections of infected CEAtg mice; assay type: in vivo, Neisseria gonorrhoeae; conditions: 20 μl of 50 μM 2 h after infection, tissue 20 h later, FIGS. 8 and 9
Procedure: 6 to 8 week old, female CEA-transgenic mice were infected with N. gonorrhoeae. 2 h after infection, the animals were treated with 20 μl buffer containing solvent (DMSO) or 50 μM NQNO (Compound represented by the Formula (5)). 20 h later, the genital tract was excised and cryosections were stained for cell nuclei (Hoechst; blue), human CEA (red) and N. gonorrhoeae (gonococci, green) (FIG. 8).
Additional cryosections from the same samples were stained for cell nuclei (Hoechst; blue), human collagen (red) and N. gonorrhoeae (gonococci, green) (FIG. 9).
In particular, in the above experiments the genital tract of infected mice was excised and immediately fixed with 4% paraformaldehyde for at least 24 h. The fixed tissue was sequentially transferred to 10% sucrose, 0.05% cacodylic acid for 1 h at 4° C., to 20% sucrose for 1 h at 4° C., and then into 30% sucrose at 4° C. overnight. Organs were mounted in the embedding medium (Cryo-M-Bed; Bright Instrument, Huntingdon, UK) and frozen at −20° C. 10 μm thick sections were cut at −20° C. using a cryostat (Vacutom HM500, Microm, Germany). Sections were stained with a mouse monoclonal antibody against collagen type IV (clone M3F7; dilution 1:200) together with a polyclonal rabbit antibody against N. gonorrhoeae (dilution 1:100). […]

For CCCCCCCCCc1cc(=O)c2ccccc2n1O [NQNO, 1-Hydroxy-2-nonylquinolin-4(1H)-one], the “Growth inhibition (area under the curve relative to solvent)” value (Commensal Neisseria) was “not compromised”, the “Number of re-isolated gonococci (vaginal colonization)” value (N. gonorrhoeae [1]; CEAtg female mice, 20 μl of 50 μM topical 2 h after infection, swabs 20 h later, FIG. 7) was “significantly (***; p<0.001) reduces the number of re-isolated gonococci; also recorded: completely blocks vaginal colonization” and the “Re-isolated gonococci from the genital tract” value (N. gonorrhoeae [1]; CEAtg mice, 10 μl of 25 μM or 50 μM intravaginally 1 h after infection, swabs 24 h later, FIG. 15) was “hardly any gonococci could be re-isolated”. The “Time stable in serum-containing cell culture medium” value [2] was “at least 4 days” and the “Gonococci on the mucosal surface (fluorescence microscopy)” value (N. gonorrhoeae [3]) was “hardly any gonococci could be detected; also recorded: no gonococci could be detected”.
